Assay results published in ChEMBL document CHEMBL6182948 (J Med Chem, 2025).

Experiments:
CYP1B1 = target: T1, CYP1B1 (Homo sapiens, UniProt Q16678); assay: Inhibition of human recombinant CYP1B1 using 7-ethoxyresorufin as substrate at 100 uM incubated under dark condition for 30 mins in presence of NADPH by EROD fluorescence assay relative to control; assay type: ADME; conditions: recombinant CYP1B1, probe 7-ethoxyresorufin
T1 sequence (Q16678 whole entry): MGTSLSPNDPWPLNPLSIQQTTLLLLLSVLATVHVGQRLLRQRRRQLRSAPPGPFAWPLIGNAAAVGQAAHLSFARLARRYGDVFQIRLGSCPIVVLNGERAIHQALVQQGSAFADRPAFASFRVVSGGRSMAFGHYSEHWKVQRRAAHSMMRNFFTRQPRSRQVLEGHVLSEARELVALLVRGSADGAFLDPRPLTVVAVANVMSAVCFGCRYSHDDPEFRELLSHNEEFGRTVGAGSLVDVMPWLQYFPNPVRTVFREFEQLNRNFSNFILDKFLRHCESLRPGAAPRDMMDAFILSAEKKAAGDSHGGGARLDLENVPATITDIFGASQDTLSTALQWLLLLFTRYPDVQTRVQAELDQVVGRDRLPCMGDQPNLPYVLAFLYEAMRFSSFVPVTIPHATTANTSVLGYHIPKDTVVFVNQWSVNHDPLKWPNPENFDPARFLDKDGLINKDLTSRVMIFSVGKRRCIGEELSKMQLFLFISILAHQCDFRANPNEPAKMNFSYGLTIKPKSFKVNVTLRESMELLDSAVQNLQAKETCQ

Cytochrome P450 1A1 = target: T2, Cytochrome P450 1A1 (Homo sapiens, UniProt P04798); assay: Inhibition of human recombinant CYP1A1 using 7-ethoxyresorufin as substrate incubated under dark condition for 15 mins in presence of NADPH by EROD fluorescence assay; assay type: ADME
T2 sequence (P04798 whole entry): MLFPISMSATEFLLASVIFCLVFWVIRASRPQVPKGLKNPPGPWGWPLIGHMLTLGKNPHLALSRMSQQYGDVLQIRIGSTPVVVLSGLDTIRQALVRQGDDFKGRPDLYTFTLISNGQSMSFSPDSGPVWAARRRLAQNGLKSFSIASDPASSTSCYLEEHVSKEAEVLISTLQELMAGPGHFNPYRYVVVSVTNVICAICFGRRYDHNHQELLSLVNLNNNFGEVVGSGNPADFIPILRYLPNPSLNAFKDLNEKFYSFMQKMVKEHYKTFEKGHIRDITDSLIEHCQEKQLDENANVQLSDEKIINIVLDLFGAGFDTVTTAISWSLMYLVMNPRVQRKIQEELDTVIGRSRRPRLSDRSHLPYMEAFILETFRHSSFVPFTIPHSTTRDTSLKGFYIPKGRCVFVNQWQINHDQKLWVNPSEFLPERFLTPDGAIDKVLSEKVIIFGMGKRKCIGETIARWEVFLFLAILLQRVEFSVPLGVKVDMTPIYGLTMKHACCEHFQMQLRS

Homo sapiens [1] = species: Homo sapiens; assay: Selectivity index, ratio of IC50 for human recombinant CYP1A1 to IC50 for human recombinant CYP1B1 using 7-ethoxyresorufin as substrate
Homo sapiens [2] = species: Homo sapiens; assay: Selectivity index, ratio of IC50 for human recombinant CYP1A2 to IC50 for human recombinant CYP1B1 using 7-ethoxyresorufin as substrate
Cytochrome P450 1A2 = target: T3, Cytochrome P450 1A2 (Homo sapiens, UniProt P05177); assay: Inhibition of human recombinant CYP1A2 using 7-ethoxyresorufin as substrate incubated under dark condition for 45 mins in presence of NADPH by EROD fluorescence assay; assay type: ADME
T3 sequence (P05177 whole entry): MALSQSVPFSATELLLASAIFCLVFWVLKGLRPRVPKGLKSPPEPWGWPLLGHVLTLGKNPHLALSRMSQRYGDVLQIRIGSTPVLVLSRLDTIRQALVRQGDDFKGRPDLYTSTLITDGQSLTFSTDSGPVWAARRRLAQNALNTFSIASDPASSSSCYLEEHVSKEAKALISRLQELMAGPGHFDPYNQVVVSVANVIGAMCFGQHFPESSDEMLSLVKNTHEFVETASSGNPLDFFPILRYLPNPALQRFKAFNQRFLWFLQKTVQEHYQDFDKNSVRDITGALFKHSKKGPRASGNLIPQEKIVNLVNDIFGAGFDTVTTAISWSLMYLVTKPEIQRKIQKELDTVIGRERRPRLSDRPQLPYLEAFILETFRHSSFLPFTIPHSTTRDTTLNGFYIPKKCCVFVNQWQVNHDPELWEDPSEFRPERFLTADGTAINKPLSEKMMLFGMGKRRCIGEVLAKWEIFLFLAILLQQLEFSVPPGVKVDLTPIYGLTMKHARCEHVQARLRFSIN

Cytochrome P450 1B1 = target: T4, Cytochrome P450 1B1 (Homo sapiens, UniProt Q16678); assay: Inhibition of human recombinant CYP1B1 using 7-ethoxyresorufin as substrate incubated under dark condition for 30 mins in presence of NADPH by EROD fluorescence assay; assay type: ADME
T4 sequence (Q16678 whole entry): T1 sequence (Q16678 whole entry)

inhibition at 0.5 h, 100 µM (CYP1B1)	IC50 (Cytochrome P450 1A1)	Ratio IC50 (Homo sapiens [1])	Ratio IC50 (Homo sapiens [2])	IC50 (Cytochrome P450 1A2)	IC50 (Cytochrome P450 1B1)	Compound
77.4%	–	–	–	–	–	O=C(Nc1cccc(Cl)c1)c1nc(-c2ccccc2)cs1
8.7%	–	–	–	–	–	O=C(Nc1ccc(N2CCNCC2)cc1)c1nc(-c2ccccc2)cs1
69.6%	–	–	–	–	–	O=C(Nc1ccccc1F)c1nc(-c2ccccc2)cs1
21.2%	–	–	–	–	–	O=C(Nc1ccc(-c2ccccc2)cc1)c1nc(-c2ccccc2)cs1
20.5%	–	–	–	–	–	O=C(Nc1ccc(N2CCOCC2)cc1)c1nc(-c2ccccc2)cs1
54.6%	–	–	–	–	–	NC(=O)c1ccc(NC(=O)c2nc(-c3ccccc3)cs2)cc1
–	106 nM	104	5590	5730 nM	1.03 nM	NC(=O)c1ccc(-c2csc(C(=O)Nc3ccc(OC(F)F)cc3)n2)cc1
–	474 nM	65.1	993	7240 nM	7.29 nM	COc1cc(NC(=O)c2nc(-c3cccc(F)c3)cs2)cc(OC)c1
–	113 nM	114	> 101000	> 100000 nM	0.99 nM	N#Cc1ccc(-c2csc(C(=O)Nc3ccc(OC(F)F)cc3)n2)cc1
–	55.7 nM	53.5	4500	4690 nM	1.04 nM	O=C(Nc1ccc(OC(F)F)cc1)c1nc(-c2cccc(Cl)c2)cs1
–	68.3 nM	16	> 23400	> 100000 nM	4.28 nM	O=C(Nc1cc(Cl)cc(Cl)c1)c1nc(-c2ccnc(Cl)c2)cs1
–	> 10000 nM	> 445	71	1590 nM	22.5 nM	O=C(Nc1cc(Cl)cc(Cl)c1)c1nc(-c2ccc(I)cc2)cs1
–	264 nM	105	1880	4720 nM	2.51 nM	O=C(Nc1cc(Cl)cc(Cl)c1)c1nc(-c2cccc(F)c2)cs1
–	456 nM	1.7	34.5	9540 nM	276 nM	CC(C)c1ccc(-c2csc(C(=O)Nc3cc(Cl)cc(Cl)c3)n2)cc1
–	168 nM	79.2	1100	2330 nM	2.12 nM	Cc1sc(C(=O)Nc2ccc(C(F)(F)F)cc2)nc1-c1cccc(F)c1
–	44.2 nM	20.2	2640	5770 nM	2.18 nM	NC(=O)c1cccc(-c2csc(C(=O)Nc3ccc(C(F)(F)F)cc3)n2)c1
–	1340 nM	116	> 8640	> 100000 nM	11.6 nM	NC(=O)c1cccc(-c2csc(C(=O)Nc3cc(Cl)cc(Cl)c3)n2)c1
–	141 nM	170	> 12100	> 10000 nM	0.83 nM	NC(=O)c1ccc(-c2csc(C(=O)Nc3ccc(C(F)(F)F)cc3)n2)cc1
–	121 nM	0.1	> 93.7	> 100000 nM	1070 nM	O=C(Nc1cc(Cl)cc(Cl)c1)c1nc(-c2ccc(F)cc2)c(-c2ccccc2)s1
–	11.5 nM	6.5	5.5	9.7 nM	1.77 nM	O=C(Nc1cc(Cl)cc(Cl)c1)c1nc(-c2cncc(Cl)c2)cs1
–	358 nM	21.5	86.5	1440 nM	16.6 nM	COc1cc(NC(=O)c2nc(-c3ccccc3F)cs2)cc(OC)c1
–	2330 nM	53.4	> 229	> 10000 nM	43.7 nM	Cc1cccc(-c2csc(C(=O)Nc3cc(Cl)cc(Cl)c3)n2)c1
–	143 nM	7170	34400	688 nM	0.02 nM	O=C(Nc1ccc(OC(F)F)cc1)c1nc(-c2cccc(F)c2)cs1
–	203 nM	25.6	67.6	537 nM	7.95 nM	O=C(Nc1cc(Cl)cc(Cl)c1)c1nc(-c2ccccc2Cl)cs1
